# US8222008B2, “Methods and compositions for treating cancer” (The Administrators of The Tulane Educational Fund, priority 2003, dated 2012)
# Key:
# [1] = test system: renal proximal tubule epithelial (RPTE) cells; test: Time course of apoptosis, TUNEL (FIG. 3); assay type: cell-based, human
# Experimental: FIG. 3 is a graph showing the effect of CDME on apoptosis in renal proximal tubule epithelial (RPTE) cells. Semi-confluent RPTE cells were treated with either 0.25 mM CDME or TNF-a, harvested at 0.5, 1, 3, and 6 hours, stained with TUNEL, and enumerated by fluorescence microscopy. Each experiment was done in triplicate. The control (time 0) cystine content was 0.6 nmol/mg protein. After 1 hour incubation, the cystine content was 2.2 nmol/mg protein.
# 2. TUNEL Assay • The TUNEL assay employs terminal deoxynucleotidyl transferase (TdT) to label the ends of double stranded DNA breaks, which occur in apoptotic cells, with FITC-conjugated dUTP. Cells were fixed in 4% buffered formalin, washed, incubated in permeabilization solution (0.1% Triton X-100 in 0.1% Na Citrate) for 2 minutes on ice and then stained with 25 μL of TdT/45 μL of labeled dNTP mix for 40 minutes at 37° C. The cells were visually enumerated by fluorescence microscopy, scoring a minimum of five fields (250 to 300 cells) for fluorescence in triplicate followed by counting all cells in the same field by light microscopy, with a minimum of 750 cells scored per condition. The apoptosis rate is the total number of cells that fluoresce divided by the total cells in the field. […]
# [2] = test system: human renal proximal tubule epithelial cells; test: Effect of various compounds on apoptosis, CaspASE staining and FACS; assay type: cell-based
# Experimental: Normal and cystinotic fibroblasts were purchased from the Coriell Mutant Cell Repository, and cultured in Coon modification of Ham F12 medium, supplemented with 10% fetal calf serum (FCS). Renal proximal tubule epithelial (RPTE; Biowhittaker Corp.) were cultured in renal epithelial basal medium supplemented with one Singlequots™ kit (Biowhittaker) per 500 mL to make renal epithelial growth media (REGM, Biowhittaker). Fibroblasts and RPTE were maintained in a 5% carbon dioxide, 95% air, humidified incubator at 37° C. (Thoene J. G. et al, 1976 J. Clin. Invest, 58:180-189).
# Cultured human renal proximal tubule epithelial cells were incubated with various apoptotic compounds at a concentration of 0.5 mM for 16 hours. Following incubation, cells were stained with CaspASE. Fluorescence-activated cell sorting (Beckman Coulter Epics Elite) was used to determine the percentage of cells undergoing apoptosis from each treatment group.
smiles,measurement,setting,value
"COC(=O)[C@@H](N)CSSC[C@H](N)C(=O)OC [CDME, cystine dimethyl ester]",rate of apoptosis compared with TNF-a alone,[1]; 0.25 mM CDME alone,equal to that induced by exposure to TNF-a alone
same,time to maximum rate of apoptosis,"[1]; CDME, followed by lysis and release from the dish",≤ 6 h
same,toxicity to RPTE cells,[2]; 0.5 mM (concentration employed in fibroblasts),toxic
same,percentage of cells undergoing apoptosis,"[2]; RPTE cells, method states 0.5 mM for 16 hours, CaspASE, FACS",39.7%
